# Tests used:
# Format in all cases: cell-based, human
# [1] = system: MDA-MB231/Luciferase positive cells; assay: Luciferase expression (IVIS imaging) of MDA-MB231/Luciferase cells in placental cotyledon; details: TSA 100 ng/mL, 4 days in bioreactor, single cotyledon
# Protocol: MDA-MB231/Luciferase positive cells were infused into the vasculature of a single isolated cotyledon (40×10^6 cells/cotyledon). Trichostatin A (TSA, 100 ng/mL) was added to the growth medium (300 mL) and the cells were cultured for 4 days in a bioreactor. As a control, an equivalent number (40×10^6 cells/cotyledon) of MDA-MB231/Luc cells were infused into the vasculature of a single isolated cotyledon and cultured in growth medium only for 4 days in a bioreactor. After 4 days of culture, each cotyledon was transferred to growth medium comprising Luciferin (150 ng/mL) for 10 minutes. Both cotyledons then were analyzed using the IVIS imaging system.
# [2] = system: MDA-MB231/Luc and CRL1803-TT (thyroid tissue carcinoma) cells; assay: MTS viable cell number of tumor cells in decellularized placental cotyledon (bioreactor); details: TSA 100 ng/mL, 10 days in bioreactor, single cotyledon, FIG. 1A
# Protocol: (§1) Trichostatin A (TSA, 100 ng/mL) was added to the growth medium (300 mL) and the cells were cultured for 10 days in a bioreactor. As a control, MDA-MB231/Luc and CRL1803-TT were infused into the vasculature of a single isolated cotyledon (3×10^6 cells/cotyledon) and cultured in growth medium only for 10 days in a bioreactor.
# (§2) Culture medium was collected throughout the culture period and measured for Calcitonin levels by ELISA. In addition, at the end of the culture (day-10), the numbers of viable cells in both the TSA-treated and control cotyledons were determined by MTS assay.
# HCT116 cells [3] = assay: MTS cell viability, HCT116 cells seeded on decellularized placental vascular scaffold (DPVS); details: 48 hours, control 100.00%
# Protocol: (§3) Blocks of decellularized placental vascular scaffold (DPVS) in 24-well plates were seeded with HCT116 cells (1×10^5 cells/per well), a human colorectal cancer cell line. As a control, HCT116 cells were cultured in wells only, i.e., in the absence of DPVS. Trichostatin A (TSA), a drug contemplated for use in the treatment of cancer, was added to the DPVS/cells or cells alone at concentrations of 20 μM and 100 μM, or was not added at all (as a control). After 48 hours of culture, cell viability was measured by MTS assay. […] Thus, DPVS can be used a platform for assessing cancer cell killing by potential antitumor compounds.
# [4] = system: MDA-MB231/Luciferase cells; assay: Luciferase activity (Xenogen IVIS) of MDA-MB231/Luciferase cells on DPVS; details: TSA 100 ng/mL, 24 hours, cells on DPVS in 6-well plates; untreated 25.63×10^6
# Protocol: Cells expressing luciferase were detected visually and quantitatively, using the Xenogen IVIS spectrum, by measuring Luciferase activity of the cells, which is indicative of cell number.
# To examine the anti-cancer drug effect on cancer cells grown in DPVS, 1.5×10^5 MDA-MB231/Luciferase cells (a human breast cancer (adenocarcinoma) cell line that expresses luciferase; Cell Biolabs) were seeded onto DPVS in 6-well plates. One set of cells/DPVS was treated with Trichostatin A (TSA, 100 ng/mL) for 24 hours. Luciferase expression by the TSA-treated cells cultured on DPVS was compared with control cultures comprising cells/DPVS that were not treated with TSA. […] Thus, DPVS can be used to study the ability of cancer drugs, e.g., TSA, to affect cancer cell growth in a three-dimensional context.
# HCT116 cells [5] = assay: MTS cell viability, HCT116 cells cultured in wells only; details: HCT116 alone, 48 hours, control 100.00%
# Protocol: as §3
# [6] = system: MDA-MB231/Luc and CRL1803-TT (thyroid tissue carcinoma) cells; assay: Calcitonin ELISA of culture medium from tumor cells in placental cotyledon; details: TSA 100 ng/mL, 10-day culture, single cotyledon, FIG. 1B
# Protocol: as §1, §2
smiles,measurement,setting,value
"CC(/C=C/C(=O)NO)=C\[C@@H](C)C(=O)c1ccc(N(C)C)cc1 [TSA, Trichostatin A]",luciferase expression vs cotyledon cultured in the absence of TSA,[1],marked decrease in luciferase expression
same,cell survival (viable cells by MTS) vs growth medium control,[2],reduced cell survival
same,Cell viability (% of untreated control),HCT116 cells [3]; TSA 20 uM,97.00%
same,Cell viability (% of untreated control),HCT116 cells [3]; TSA 100 uM,73.32%
same,luciferase signal,[4],8.22×10^6
same,Cell viability (% of untreated control),HCT116 cells [5]; TSA 20 uM,11.21%
same,Cell viability (% of untreated control),HCT116 cells [5]; TSA 100 uM,10.36%
same,Calcitonin production by the cells,[6],reduced

# From US9575054B2, “Identification of antitumor compounds using placenta” (Anthrogenesis Corporation, priority 2013, dated 2017)
